In assay [1] the test system is U251-MG cells. The assay can be described thus: Half-maximal cell-inhibitory concentration on U251-MG cells (CCK-8). The assay is classed as cell-based. The note with it: Homo sapiens, U-251, U251-MG cells (DHX33-overexpressing cancer cell strain), 48 hours, read-out: IC50 (half-maximal inhibitory concentrations of compounds on U251-MG cells). In short, it runs like this:
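[…]-overexpressing glioma cells seeded at 1×10^4 cells/well, exposed to compound from 5 nM to 20 μM for 48 hours at 37° C, 5% CO2. Viability read by CCK-8 after 2 hours (OD 450 nm); IC50 from inhibition curves, three repeats.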

Assay [2] addresses T1, DHX33 protein (Mus musculus, UniProt Q80VY9).
T1 construct: purified full-length DHX33 protein; made in house; host or cells: E. coli BL-21pLysS (DE3)
T1 sequence (Q80VY9 1-698): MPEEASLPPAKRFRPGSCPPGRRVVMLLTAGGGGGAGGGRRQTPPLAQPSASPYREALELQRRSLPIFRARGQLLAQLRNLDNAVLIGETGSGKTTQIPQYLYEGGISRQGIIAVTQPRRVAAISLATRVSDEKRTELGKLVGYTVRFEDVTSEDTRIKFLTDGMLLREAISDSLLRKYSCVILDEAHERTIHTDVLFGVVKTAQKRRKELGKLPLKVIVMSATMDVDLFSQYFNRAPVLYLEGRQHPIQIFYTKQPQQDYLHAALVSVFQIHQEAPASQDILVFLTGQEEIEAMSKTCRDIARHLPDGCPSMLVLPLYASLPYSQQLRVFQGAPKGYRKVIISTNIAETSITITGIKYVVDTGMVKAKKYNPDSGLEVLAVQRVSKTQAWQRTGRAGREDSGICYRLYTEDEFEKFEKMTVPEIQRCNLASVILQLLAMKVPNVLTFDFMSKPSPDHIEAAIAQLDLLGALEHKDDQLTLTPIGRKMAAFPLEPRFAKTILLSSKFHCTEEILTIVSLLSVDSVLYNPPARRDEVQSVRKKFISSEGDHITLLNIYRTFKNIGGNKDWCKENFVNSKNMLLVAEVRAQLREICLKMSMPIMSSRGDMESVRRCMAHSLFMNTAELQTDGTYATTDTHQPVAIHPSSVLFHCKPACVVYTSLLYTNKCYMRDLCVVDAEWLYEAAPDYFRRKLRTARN
Kind of assay: Inhibition of the helicase activity of DHX33 protein in vitro. The note with it: recombinant DHX33 protein, compound 1-1000 nM, 37° C., 60 minutes; read-out: IC50 (inhibitory effects of the compounds on the helicase activity of DHX33 protein). The format is biochemical. The method, then: Biochemistry. 2019:58 (4):250-8. RNA helicase gene (mouse DHX33 gene) was cloned into a pET32M-3C vector (between BamH I/Not I restriction sites). Afterward, the plasmid was transformed into BL-21pLysS (DE3) E. coli. 0.5 mM isopropyl 1-thio-βp-D-galactopyranoside (IPTG) was added, and the expression of the recombinant protein was induced at 16° C. for 16 hours. Cells were allowed to precipitate and were resuspended in a cell lysis buffer [50 mM Tris-HCl (pH7.2), 150 mM NaCl, 1% Triton X-100, and 50 mM imidazole supplemented with a protease inhibitor]. Thereafter, cells were subjected to ultrasonic treatment and centrifuged at a rotation speed of 13000 rpm for 25 minutes. The supernatant was incubated with the nickel-nitrilotriacetic acid beads equilibrated in Tris buffer, followed by sufficient washing. Thereafter, the purified protein was eluted with a solution of 300 mM imidazole in Tris buffer, and was then subjected to dialysis against an imidazole-free Tris buffer at 4° C. overnight.
The components involved in the reaction for testing the helicase activity were added to a 96-well opaque white plate. The method was outlined as follows. The 96-well plate was coated with neutravidin at a final concentration of 10 μg/mL (100 μl/well) overnight at 4° C. Afterwards, the neutravidin-coated plate was blocked with 100 μL of 0.1% (w/v) BSA (dissolved in normal PBS) at 22° C. for 2 hours. After washing, a DNA duplex (2.5 ng) that was resulted from the annealing of two single-stranded DNA oligonucleotides (the sequence of one single strand was biotin-labeled 5′-[…]-3′; and the sequence of the other single strand was DIG-labeled 5′-[…]-3′) [the annealing reaction was carried out in PBS (pH 7.0) containing 1M NaCl] was added, and the resulting mixture was incubated at 22° C. for 4 hours. After the addition of 90 μL of the reaction mixture, the helicase reaction was initiated [0.25 pig of purified full-length DHX33 protein, dissolved in 25 mM 4-MOPS (pH 7.0), 5 mM ATP 2 mM DTT, 3 mM MnCl2 and 100 μg/mL BSA]. The reaction was conducted at 37° C. for 60 minutes. After being washed, each well was incubated with a blocking solution [10% (w/v) BSA in 0.1 M maleic acid and 0.15 M NaCl (pH 7.5)] for 30 minutes, and was then incubated with 20 μL of antibody solution (anti-DIG-AP, Roche, in blocking buffer) for 30 minutes. After being washed with 100 μL of detection buffer [0.1 M Tris-HCl and 0.1 M NaCl (pH 9.5)], each well was added with 1 μL of chemiluminescent substrate (CSPD-0.25 mM), and the plate was incubated at 17° C. for 5 minutes. Afterwards, the plate was patted dry and incubated at 37° C. for 30 minutes. The remaining DIG-AP marker control in each well was counted for 10 minutes by a luminescence multi-well plate reader (Enspire, PerkinElmer). Higher reading indicated weaker helicase activity.
Positive control and negative controls were set for this acticity assay. Among them, one negative control group, which differed from the experimental group only in that the former was not added with ATP (other conditions were the same as the experimental group), was used for the comparison with the experimental group; another negative control group, which differed from the experimental group only in that the former was not added with DHX33 protein (other conditions were the same as the experimental group), was used for the comparison with the experimental group. The positive control group was set for the comparison with the wild-type DHX33 protein (standard substance).
Biochemistry. 2019:58 (4):250-8.
Compounds having a series of concentration (the concentrations were set at 1 nM, 5 nM, 10 nM, 20 nM, 50 nM, 100 nM, 250 nM, 500 nM, and 1000 nM) were used to conduct the helicase activity assay of […] protein in vitro. The half-maximal inhibitory concentrations of the compounds of the present disclosure on the helicase activity of […] protein were as shown in Table 1.

Structures are written as SMILES. Some results are limits rather than exact numbers.

Take `COc1ccc2nc(NC(=O)c3cc(C)n(-c4sc(C)cc4C(N)=O)c3C)[nH]c2c1` [AB24387, 1-(3-carbamoyl-5-methylthiophen-2-yl)-N-(6-methoxy-1H-benzo[d]imidazol-2-yl)-2,5-dimethyl-1H-pyrrole-3-carboxamide]: the values for the IC50 in assay [1] and in assay [2] were 100 to 1000 nM and 20 to 100 nM, respectively.
The matching figures for `COc1cc2nc(/C(C#N)=C/c3cc(C)n(Cc4cccs4)c3C)[nH]c2cn1` [AB24399, (E)-3-(2,5-dimethyl-1-(thiophen-2-ylmethyl)-1H-pyrrol-3-yl)-2-(6-methoxy-3H-imidazo[4,5-c]pyridin-2-yl)acrylonitrile]: < 100 nM and < 20 nM.
Consider `COc1ccc2cc(NC(=O)c3cc(C)n(-c4sc(C)nc4C#N)c3C)[nH]c2c1` [AB29501], for which the results for the IC50 in assay [1] and in assay [2] were < 100 nM and < 20 nM, respectively.
On the same counts, the results for `COc1cc2nc(/C(C#N)=C/c3cc(C)n([C@@H](C)c4ccccc4)c3C)[nH]c2cn1` [AB29506, (S,E)-3-(2,5-dimethyl-1-(1-phenylethyl)-1H-pyrrol-3-yl)-2-(6-methoxy-3H-imidazo[4,5-c]pyridin-2-yl)acrylonitrile] are < 100 nM and < 20 nM.
Turning to `COc1cc2nc(/C(C#N)=C/c3cnc(-c4ccccc4)n3C)[nH]c2cn1` [AB29511, (E)-2-(6-methoxy-3H-imidazo[4,5-c]pyridin-2-yl)-3-(1-methyl-2-phenyl-1H-imidazol-5-yl)acrylonitrile], the IC50 was in the range of 5000 to 20000 nM in assay [1] and 400 to 1000 nM in assay [2].
The matching figures for `Cc1oc(-n2c(C)cc(/C=C(\C#N)c3nc4ccccc4[nH]3)c2C)c(C#N)c1C` [Compound as control, reference compound]: 5000 to 20000 nM and 400 to 1000 nM.

(Values after patent US20230146233A1, “A CLASS OF POLYCYCLIC COMPOUNDS INHIBITING RNA HELICASE DHX33 AND THE APPLICATION THEREOF” (Shenzhen KeYe Life Technologies, Co., Ltd, priority 2020, published 2023).)
